In ChEMBL document CHEMBL3045956, “Bioisosteric synthesis of nitrogen containing derivatives of salicyl alcohol, their in vivo pharmacological studies with molecular modeling” (2013):
Active and inactive are the calls of the source. No cut-off for these calls is given here.

What was measured:
Mus musculus [1] = assay: Analgesic activity in Balb/c albino Mus musculus (mouse) assessed as protection against acetic acid-induced writhing at 15 to 45 mg/kg measured up to 20 min relative to control; format: functional; conditions: dose mg/kg 15-45
Mus musculus [2] = assay: Antinociceptive activity in Balb/c albino Mus musculus (mouse) assessed as latency time on hot plate at 15 to 45 mg/kg up to 60 min by hot-plate method relative to control; format: functional, organism-based
Mus musculus [3] = assay: Antipyretic activity in Balb/c albino Mus musculus (mouse) assessed as Brewer's yeast-induced rectal temperature at 50 to 150 mg/kg, ip measured after 3 hr (reference value: 38.7 degC); format: functional; conditions: dose mg/kg 50-150; route intraperitoneal
Mus musculus [4] = assay: Antipyretic activity in Balb/c albino Mus musculus (mouse) assessed as decrease in Brewer's yeast-induced rectal temperature at 50 to 150 mg/kg, ip measured up to 1.5 hr relative to control; format: functional, organism-based
Mus musculus [5] = assay: Anti-inflammatory activity in Balb/c albino Mus musculus (mouse) assessed as inhibition of carrageenan-induced paw edema at 50 to 150 mg/kg at 5 hr relative to control; format: functional, organism-based
Mus musculus [6] = assay: Anti-inflammatory activity in Balb/c albino Mus musculus (mouse) assessed as inhibition of carrageenan-induced paw edema at 50 to 150 mg/kg at 1 hr relative to control; format: functional, organism-based
Mus musculus [7] = assay: Anti-inflammatory activity in Balb/c albino Mus musculus (mouse) assessed as inhibition of carrageenan-induced paw edema at 50 to 150 mg/kg up to 5 hr relative to control; format: functional, organism-based

Row | SMILES | Activity (Mus musculus [1]) [%] | Activity (Mus musculus [2]) | T (Mus musculus [3]) [°C] | inhibition (Mus musculus [4]) | inhibition (Mus musculus [5]) | inhibition (Mus musculus [6]) | inhibition (Mus musculus [7])
1 | CC(=O)Oc1ccccc1C(=O)O [ASPIRIN] | 78.38 |  |  |  |  |  | 
2 | Cl.Oc1ccccc1CN1CCCCC1 | 67.62 | inactive | 37.7 | Active | Active | Active | 
3 | Cl.NC(=O)C1CCN(Cc2ccccc2O)CC1 | 67.34 | inactive | 37.2 | Active | Active | Active | Active
